# Publication PMC6887723, “Design and Synthesis of 4-(Heterocyclic Substituted Amino)-1H-Pyrazole-3-Carboxamide Derivatives and Their Potent Activity against Acute Myeloid Leukemia (AML)” (International Journal of Molecular Sciences, 2019)
# “And” between values parts separate entries of the source, which are not always exact repeats. Equal entries are not always repeated.
# How the values were obtained:
# [1] = target: T1, CDK4 (Homo sapiens, UniProt P11802); assay: CDK4 kinase activity assay (Hot-Spot); assay type: biochemical; conditions: 10 μM ATP; mean ± SD, three independent experiments
# T1 construct: purchased Reaction Biology Corp
# Procedure: (§1) Activities of kinases were determined using Hot-SpotSM kinase assay which was performed by Reaction Biology Corp. (Malvern PA, USA) as described previously.
# [2] = target: T2, CDK2 (Homo sapiens, UniProt P24941); assay: CDK2 kinase activity assay (Hot-Spot); assay type: biochemical; conditions: 10 μM ATP; mean ± SD, three independent experiments
# T2 construct: purchased Reaction Biology Corp
# Procedure: as §1
# [3] = target: T3, FLT3 (Homo sapiens, UniProt P36888); assay: FLT3 kinase activity assay (Hot-Spot); assay type: biochemical; conditions: 10 μM ATP; mean ± SD, three independent experiments
# T3 construct: purchased Reaction Biology Corp
# T3 sequence (P36888 27-993): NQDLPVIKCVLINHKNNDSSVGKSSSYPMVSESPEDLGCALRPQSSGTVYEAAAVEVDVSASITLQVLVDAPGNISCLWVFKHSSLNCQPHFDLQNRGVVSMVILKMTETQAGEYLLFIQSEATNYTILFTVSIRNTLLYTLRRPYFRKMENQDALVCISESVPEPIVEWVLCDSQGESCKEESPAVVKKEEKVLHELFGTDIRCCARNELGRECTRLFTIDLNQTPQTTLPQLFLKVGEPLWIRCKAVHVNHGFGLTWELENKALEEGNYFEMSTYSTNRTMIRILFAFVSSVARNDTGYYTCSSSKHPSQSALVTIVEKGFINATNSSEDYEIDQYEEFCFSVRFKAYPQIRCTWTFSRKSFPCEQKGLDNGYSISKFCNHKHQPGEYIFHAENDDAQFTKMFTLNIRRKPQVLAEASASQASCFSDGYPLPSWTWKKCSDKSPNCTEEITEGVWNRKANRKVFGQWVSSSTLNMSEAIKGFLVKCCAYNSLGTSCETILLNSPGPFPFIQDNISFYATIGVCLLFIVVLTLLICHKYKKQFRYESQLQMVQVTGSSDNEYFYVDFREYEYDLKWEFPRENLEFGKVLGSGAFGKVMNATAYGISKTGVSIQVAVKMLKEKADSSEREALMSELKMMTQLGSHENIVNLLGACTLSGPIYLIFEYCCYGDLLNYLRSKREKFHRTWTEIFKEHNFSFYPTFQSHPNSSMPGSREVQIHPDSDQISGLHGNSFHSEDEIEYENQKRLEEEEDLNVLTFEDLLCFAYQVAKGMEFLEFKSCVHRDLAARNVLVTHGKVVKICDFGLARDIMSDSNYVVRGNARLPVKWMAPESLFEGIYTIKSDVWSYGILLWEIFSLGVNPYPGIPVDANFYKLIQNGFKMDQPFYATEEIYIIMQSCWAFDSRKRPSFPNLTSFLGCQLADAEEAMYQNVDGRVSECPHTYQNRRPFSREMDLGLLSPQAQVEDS
# Procedure: as §1
# [4] = system: MV4-11; assay: Cell growth inhibition assay (CellTiter-Glo); assay type: cell-based; conditions: Homo sapiens, 72 h, highest test concentration 1 μM, mean ± SD, three independent experiments
# Procedure: The human AML cell line MV4-11 was purchased from the American Type Culture Collection (ATCC) (Manassas, VA, USA). MV4-11 was cultured in IMDM media (Corning, Crown Bioscience Inc., Taicang, China) with 10% FBS and supplemented with 2% L-glutamine and 1% pen/strep. The MV4-11 cell line was maintained in culture media at 37 °C with 5% CO2. The effects of target compounds on MV4-11 proliferation was performed by Crown Bioscience Inc. Cells were grown in 96-well culture plates (10,000/well). The compounds of various concentrations were added into the plates. Cell proliferation was determined after treatment with compounds for 72 h. Cell viability was measured using the CellTiter-Glo assay (Promega, Crown Bioscience Inc., Taicang, China) according to the manufacturer’s instructions, and luminescence was measured in a multilabel reader (Envision2014, PerkinElmer, Crown Bioscience Inc., Taicang, China). Data were normalized to the control group (DMSO) and represented by the mean of three independent measurements with standard error of <20%. IC50 values were calculated using Prism 5.0 (GraphPad Software, San Diego, CA, USA).
# [5] = system: BaF3 (FLT3 (ITD-F691L)); assay: Antiproliferative activity in BaF3 cells transformed with FLT3-ITD-F691L; assay type: cell-based; conditions: Mus musculus, Table S2
# T1 sequence (P11802 whole entry): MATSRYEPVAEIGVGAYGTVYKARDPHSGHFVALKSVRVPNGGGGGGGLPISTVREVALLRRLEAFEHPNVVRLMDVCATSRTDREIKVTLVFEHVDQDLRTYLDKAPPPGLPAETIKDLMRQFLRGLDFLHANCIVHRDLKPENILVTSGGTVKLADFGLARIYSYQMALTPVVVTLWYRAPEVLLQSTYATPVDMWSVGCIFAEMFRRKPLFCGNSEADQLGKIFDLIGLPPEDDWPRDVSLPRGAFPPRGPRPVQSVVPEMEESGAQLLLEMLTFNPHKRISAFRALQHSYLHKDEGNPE
# T1 sequence (P24385 whole entry partner): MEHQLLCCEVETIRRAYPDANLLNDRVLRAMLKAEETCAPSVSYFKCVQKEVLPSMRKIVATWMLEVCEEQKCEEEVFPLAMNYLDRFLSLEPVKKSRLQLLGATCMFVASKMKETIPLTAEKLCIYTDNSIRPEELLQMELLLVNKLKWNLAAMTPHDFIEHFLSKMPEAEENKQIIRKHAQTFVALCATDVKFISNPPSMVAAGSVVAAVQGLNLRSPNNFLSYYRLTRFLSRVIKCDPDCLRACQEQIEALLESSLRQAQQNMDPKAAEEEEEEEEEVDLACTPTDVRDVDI
smiles,measurement,setting,value
O=C(Nc1ccccc1)c1n[nH]cc1Nc1ncnc2[nH]ccc12 [Compound 3a],IC50,[1],34.1 ± 0.94 nM
same,IC50,[2],0.2 ± 0.01 nM
same,IC50,[3],5.1 ± 0.46 nM
O=C(Nc1ccncc1)c1n[nH]cc1Nc1ncnc2[nH]ccc12 [Compound 3b],IC50,[1],54.2 ± 1.26 nM
same,IC50,[2],4.31 ± 0.91 nM
same,IC50,[3],5.83 ± 0.74 nM
CC(C)(C)OC(=O)N1CCC(NC(=O)c2n[nH]cc2Nc2ncnc3[nH]ccc23)CC1 [Compound 3c],IC50,[1],87.1 ± 1.26 nM
same,melting point,,268 to 269 °C
same,IC50,[2],32.8 ± 1.34 nM
same,IC50,[3],88.8 ± 1.06 nM
O=C(NC1CCNCC1)c1n[nH]cc1Nc1ncnc2[nH]ccc12 [Compound 3d],IC50,[1],77.4 ± 1.1 nM
same,IC50,[2],63.2 ± 0.91 nM
same,IC50,[3],74.3 ± 1.21 nM
O=C(Nc1ccc(C(=O)N2CCOCC2)cc1)c1n[nH]cc1Nc1ncnc2sccc12 [Compound 8a],IC50,[1],33 ± 0.94 nM
same,melting point,,243 to 244 °C
same,IC50,[2],10.4 ± 0.41 nM
same,IC50,[3],17.8 ± 0.89 nM
CN1CCN(C(=O)c2ccc(NC(=O)c3n[nH]cc3Nc3ncnc4sccc34)cc2)CC1 [Compound 8b],IC50,[1],30.1 ± 0.99 nM
same,IC50,[4],35.2 ± 0.83 nM
same,melting point,,280 to 281 °C
same,IC50,[2],8.42 ± 0.52 nM
same,IC50,[3],19.18 ± 0.18 nM
CN1CCCN(c2ccc(NC(=O)c3n[nH]cc3Nc3ncnc4sccc34)cc2)CC1 [Compound 8c],IC50,[1],2.41 ± 0.21 nM
same,IC50,[4],4.28 ± 0.35 nM
same,melting point,,223 to 224 °C
same,IC50,[2],3.51 ± 0.19 nM
same,IC50,[3],0.176 ± 0.09 nM
CN1CCCN(c2ccc(NC(=O)c3n[nH]cc3Nc3ncnc4[nH]ccc34)cc2)CC1 [Compound 8d],IC50,[1],5.32 ± 0.31 nM
same,IC50,[4],9.5 ± 0.01 nM
same,melting point,,263 to 264 °C
same,IC50,[2],2.32 ± 0.014 nM
same,IC50,[3],0.262 ± 0.01 nM
CN1CCCN(c2cccc(NC(=O)c3n[nH]cc3Nc3ncnc4[nH]ccc34)c2)CC1 [Compound 8e],IC50,[1],51 ± 0.88 nM
same,IC50,[4],38.3 ± 1.21 nM
same,melting point,,215 to 216 °C
same,IC50,[2],5.49 ± 0.42 nM
same,IC50,[3],2.71 ± 0.31 nM
CN1CCCN(c2cccc(NC(=O)c3n[nH]cc3Nc3ncnc4sccc34)c2)CC1 [Compound 8f],IC50,[1],67.3 ± 1.09 nM
same,IC50,[4],54.1 ± 1.73 nM
same,melting point,,> 300 °C
same,IC50,[2],31.7 ± 0.55 nM
same,IC50,[3],8.07 ± 0.21 nM
O=C(Nc1ccc(N2CCOCC2)cc1)c1n[nH]cc1Nc1ncnc2[nH]ccc12 [Compound 8g],IC50,[1],10.6 ± 0.24 nM
same,IC50,[4],16 ± 0.43 nM
same,melting point,,303 to 304 °C
same,IC50,[2],3.74 ± 0.16 nM
same,IC50,[3],1.945 ± 0.013 nM
O=C(Nc1ccc(N2CCNCC2)cc1)c1n[nH]cc1Nc1ncnc2[nH]ccc12 [Compound 8h],IC50,[1],1.19 ± 0.09 nM
same,IC50,[4],7.3 ± 0.33 nM
same,melting point,,304 to 305 °C
same,IC50,[2],0.282 ± 0.013 nM
same,IC50,[3],0.038 ± 0.001 nM
O=C(Nc1ccc(N2CC3CC2CN3)cc1)c1n[nH]cc1Nc1ncnc2sccc12 (centres unmarked) [Compound 8i],IC50,[1],9.17 ± 0.33 nM
same,IC50,[4],27.2 ± 0.43 nM
same,IC50,[2],24.5 ± 0.57 nM
same,IC50,[3],3.24 ± 0.14 nM
"O=C(Nc1ccc(N2CC3CC2CN3)cc1)c1n[nH]cc1Nc1ncnc2[nH]ccc12 (centres unmarked) [Compound 8j, N-(4-(2,5-Diazabicyclo[2.2.1]heptan-2-yl)phenyl)-4-((7 H-pyrrolo[2,3-d]pyrimidin-4-yl)amino)-1H-pyrazole-3-carboxamide]",IC50,[1],17.8 ± 0.82 nM
same,IC50,[4],21.4 ± 0.56 nM
same,melting point,,248 to 249 °C
same,IC50,[2],9.64 ± 0.46 nM
same,IC50,[3],2.81 ± 0.11 nM
"O=C(Nc1ccc(N2CCNCC2)cn1)c1n[nH]cc1Nc1ncnc2sccc12 [Compound 8k, N-(5-(Piperazin-1-yl)pyridin-2-yl)-4-(thieno[2,3-d]pyrimidin-4-ylamino)-1H-pyrazole-3-carboxamide]",IC50,[1],22.3 ± 0.92 nM
same,IC50,[4],51.1 ± 1.34 nM
same,melting point,,> 300 °C
same,IC50,[2],315.2 ± 2.3 nM
same,IC50,[3],6.03 ± 0.16 nM
"O=C(Nc1ccc(N2CCNCC2)cn1)c1n[nH]cc1Nc1ncnc2[nH]ccc12 [Compound 8l, 4-((7H-Pyrrolo[2,3-d]pyrimidin-4-yl)amino)-N-(5-(piperazin-1-yl)pyridin-2-yl)-1H-pyrazole-3-carboxamide]",IC50,[1],23.1 ± 0.55 nM
same,IC50,[4],134 ± 1.64 nM
same,melting point,,288 to 290 °C
same,IC50,[2],157 ± 3.22 nM
same,IC50,[3],13.8 ± 0.37 nM
O=C(Nc1ccc(N2CCNCC2)cn1)c1n[nH]cc1Nc1ncnc2sc3c(c12)CCC3 [Compound 8n],IC50,[1],4.85 ± 0.2 nM
same,IC50,[4],19.9 ± 0.74 nM
same,IC50,[2],98.7 ± 1.33 nM
same,IC50,[3],1.88 ± 0.09 nM
O=C(Nc1ccc(N2CCNCC2)cn1)c1n[nH]cc1Nc1ncnc2sc3c(c12)CCCCC3 [Compound 8o],IC50,[1],1.81 ± 0.023 nM
same,IC50,[4],45.4 ± 1.07 nM
same,IC50,[2],109.2 ± 1.01 nM
same,IC50,[3],8.28 ± 0.12 nM
O=C(Nc1ccc(N2CCNCC2)cn1)c1n[nH]cc1Nc1ncnc2sc3c(c12)CCCC3 [Compound 8p],IC50,[1],3.81 ± 0.26 nM
same,melting point,,266 to 267 °C
same,IC50,[2],86.4 ± 1.36 nM
same,IC50,[3],7.45 ± 0.19 nM
O=C(Nc1ccc(N2CCNCC2)cn1)c1n[nH]cc1Nc1ncnc2c1CCC2 [Compound 8q],IC50,[1],123.4 ± 1.09 nM
same,IC50,[4],458 ± 9.2 nM
same,melting point,,> 290 °C
same,IC50,[2],509 ± 10.3 nM
same,IC50,[3],20.2 ± 0.35 nM
O=C(Nc1ccc(N2CCOCC2)cc1)c1n[nH]cc1Nc1ncnc2sc3c(c12)CCCC3 [Compound 8r],IC50,[1],24.9 ± 0.29 nM
same,IC50,[4],3.28 ± 0.19 nM
same,melting point,,267 to 268 °C
same,IC50,[2],9.29 ± 0.64 nM
same,IC50,[3],3.8 ± 0.1 nM
O=C(Nc1ccc(N2CC3CC2CN3)cc1)c1n[nH]cc1Nc1ncnc2sc3c(c12)CCC3 (centres unmarked) [Compound 8s],IC50,[1],4.36 ± 0.19 nM
same,IC50,[4],9.13 ± 0.11 nM
same,IC50,[2],5.43 ± 0.41 nM
same,IC50,[3],0.82 ± 0.003 nM
"CN1CCN(Cc2ccc(NC(=O)c3n[nH]cc3Nc3ncnc4[nH]ccc34)cc2)CC1 [FN-1501, 4-((7H-Pyrrolo[2,3-D]Pyrimidin-4-Yl)Amino)-N-(4-((4-Methylpiperazin-1-Yl)Methyl)Phenyl)-1H-Pyrazole-3-Carboxamide, reference compound]",IC50,[1],0.39 nM and 1.02 nM
same,IC50,[4],9 ± 0.27 nM
same,IC50,[5],55.9 nM
same,IC50,[2],1.02 nM and 2.33 nM
